Patent publication US20250268260A1, “PESTICIDAL COMPOSITIONS INCLUDING AN ISOXAZOLINE COMPOUND” (SYNGENTA CROP PROTECTION AG, priority 2022, published 2025)

Experiments:
Assay type in all cases: in vivo
Diabrotica balteata = assay: Corn seed treatment, Diabrotica balteata larvae mortality and plant damage (Example 2); conditions: 6 days after infestation, alone or combined
Protocol: The products FS400 and NOVODOR 3% FC were diluted with the addition of water to have the dose of active ingredient for 30 seeds plus an overage of 10%. These extra 10% were needed to compensate for losses of active ingredient during the seed treatment process. 30 seeds of corn were placed in a spheric glass beaker, and the application solution was added. The beaker was swung to mix the seeds with the solution. After drying, four seeds were sown per pot. 5 replicates per treatment were prepared. 14 days after sowing the pots were infested with 5 second instar larvae of Diabrotica balteata. 6 days after infestation (6DAI) the mortality of larvae and the damage on the plants was assessed.

Agriotes lineatus = assay: Barley seed treatment, wireworm (Agriotes lineatus) corrected mortality and plant height (Example 3); conditions: for % Increase plant height in comparison to infested control (6DAI) observed / Plant height in cm: 6DAI; for Plant height in cm: barley, infested control 9.3, not infested control 14.9; for % Corrected mortality (20 DAI) observed: 20 days after infestation, barley seed treatment
Protocol: The products FS400 and NOVODOR 3% FC were diluted with the addition of water to have the dose of active ingredient for 30 seeds plusan overage of 10%. These extra 10% were needed to compensate for losses of active ingredient during the seed treatment process. 30 seeds of barley were placed in a spheric glass beaker, and the application solution was added. The beaker was swung to mix the seeds with the solution. After drying two seeds were sown per pot. 10 replicates per treatment were prepared. 5 days after sowing the pots were infested with 10 wireworms (Agriotes lineatus, approx. 20 mm length). 20 days after infestation (20DAI), the corrected mortality of the wireworms was assessed based on the control treatment. 6 days after infestation (6DAI) the plant height was measured.

Spodoptera littoralis = assay: Foliar spray on soybean plants, Spodoptera littoralis larvae mortality (Example 1); conditions: isocycloseram 0.4 ppm (0.2 g AI/ha), Bt1 45 ppm (22.5 g AI/ha), alone or combined, second instar larvae; for % mortality (3DAA) Observed Results: 3 days after application; for % mortality (5DAA) Observed Results: 5 days after application
Protocol: The products VIRANTRA SC400 and COSTAR WG 18 are diluted with the addition of water to obtain the concentrations of active ingredients gathered in Table 1 and Table 2, and were applied on soybean plants (planted in pots; ˜8 plants per pot, 5 pots per treatment), in using a turn table application machine (500 l/ha). After drying 10 soybean plants were cut and placed in a petri dish (diameter: 14.5 cm) containing 3 wet filter papers (4 ml water); 3 replicates per concentration were done. Plants were infested with 10 Spodoptera littoralis larvae (second instar of larvae) and petri dish was covered with a round cotton tissue and closed with a plastic lid. Three and five days after application mortality was assessed.

[1] = isocycloseram 0.01 mg/seed (3 g/100 kg seeds), Bt2 0.03 mg/seed (10 g/100 kg seeds)
[2] = isocycloseram 0.03 mg/seed (10 g/100 kg seeds), Bt2 0.1 mg/seed (30 g/100 kg seeds)
[3] = Bt2 alone 5 μg/seed (120 g/100 kg seed)
[4] = isocycloseram 0.25 μg/seed (6 g/100 kg seed), alone or + Bt2 5 μg/seed
[5] = isocycloseram 1.25 μg/seed (24 g/100 kg seed), alone or + Bt2 5 μg/seed

Molecule	% Mortality (6DAI) observed (Diabrotica balteata; [1]) [%]	% Plant damage reduction (6DAI) observed (Diabrotica balteata; [1]) [%]	% Mortality (6DAI) observed (Diabrotica balteata; [2]) [%]	% Plant damage reduction (6DAI) observed (Diabrotica balteata; [2]) [%]	% Increase plant height in comparison to infested control (6DAI) observed (Agriotes lineatus; [3]) [%]	Plant height in cm (Agriotes lineatus; [3]) [cm]	% Corrected mortality (20 DAI) observed (Agriotes lineatus; [3]) [%]	% mortality (3DAA) Observed Results (Spodoptera littoralis) [%]	% mortality (5DAA) Observed Results (Spodoptera littoralis) [%]	Plant height in cm (Agriotes lineatus; [4]) [cm]	Plant height in cm (Agriotes lineatus; [5]) [cm]	% Increase plant height in comparison to infested control (6DAI) observed (Agriotes lineatus; [4]) [%]	% Increase plant height in comparison to infested control (6DAI) observed (Agriotes lineatus; [5]) [%]	% Corrected mortality (20 DAI) observed (Agriotes lineatus; isocycloseram 0.25 μg/seed (6 g/100 kg seed), alone or + Bt2 5 μg/seed (120 g/100 kg seed)) [%]	% Corrected mortality (20 DAI) observed (Agriotes lineatus; isocycloseram 1.25 μg/seed (24 g/100 kg seed), alone or + Bt2 5 μg/seed (120 g/100 kg seed)) [%]
Bacillus thuringiensis var. tenebrionis strain NB-176 [Bt2]	0	−6	0	11	0	9	0	–	–	–	–	–	–	–	–
Bacillus thuringiensis var. kurstaki strain SA-12 [Bt1]	–	–	–	–	–	–	–	20	30	–	–	–	–	–	–
CCN1OCC(NC(=O)c2ccc(C3=NOC(c4cc(Cl)c(F)c(Cl)c4)(C(F)(F)F)C3)cc2C)C1=O (stereo not drawn) [isocycloseram]	33	33	58	50	–	–	–	0	7	10.2	10.6	10	14	17	25
